Experimental data published in patent US20050049299A1, “Selective inhibitors of stat-3 activation and uses thereof” (priority 2003, published 2005).

Tests used:
Assay type in all cases: cell-based, human
STAT3 phosphorylation = assay: Constitutive STAT3 phosphorylation in U266 cells (Western blot)
Protocol: (§1) U266 cells (2×10^6) were treated with the indicated concentrations of curcumin for 1 h, or treated with 50 μM curcumin for the indicated durations and levels of phosphorylated-STAT3 (upper panel) and STAT3 (lower panel) were examined in whole cell extracts by Western Blotting. […] U266 cells (2×10^6) were treated with 50 μM curcumin for indicated durations, and examined for phosphorylated and nonphosphorylated-STAT3, and STAT5. […] U266 cells (2×10^6) were preincubated with curcumin (50 μM) for indicated durations before treatment with IFN-α (10 ng/ml) for additional 30 min and then examined for phosphorylated and nonphosphorylated-STAT1.
U266 cells (2×10^6 cells) were treated with 50 μM curcumin for the indicated durations (left panels) or treated for 1 h and washed with PBS two times to remove curcumin before resuspending in fresh medium. Cells were removed at indicated times and lysed to prepare the whole cell extract (right panels). Thirty micrograms of whole cell extracts were resolved on 7.5% SDS-PAGE, electrotransferred to a nitrocellulose membrane, probed for the phosphorylated-STAT3 (upper panels) and stripped and reprobed for STAT3 (middle panels) and β-actin (lower panels).
Thirty micrograms of whole-cell extract was resolved on 7.5% SDS-PAGE, electrotransferred to a nitrocellulose membrane, probed for the phospho-STAT3 (upper panel), stripped, and reprobed for STAT3 (middle panel) and β-actin (lower panel).
(§2) For detection of STAT proteins, whole-cell extracts were prepared by lysing the curcumin-treated cells in lysis buffer (20 mM Tris, pH 7.4, 250 mM NaCl, 2 mM EDTA, pH 8.0, 0.1% Triton-X100, 0.01 mg/ml aprotinin, 0.005 mg/ml leupeptin, 0.4 mM PMSF, and 4 mM NaVO4). Lysates were then spun at 14000 rpm for 10 min to remove insoluble material, and resolved on a 7.5% gel. After electrophoresis, the proteins were electrotransferred to a nitrocellulose membrane, blocked with 5% nonfat milk, and probed with anti-STAT antibodies (1:1000) overnight at 4° C. The blot was washed, exposed to HRP-conjugated secondary antibodies for 1 h, and finally examined by chemiluminescence (ECL, Amersham Pharmacia Biotech. Arlington Heights, Ill.).
Whether curcumin inhibits the constitutive STAT3 phosphorylation in U266 was investigated. U266 cells were incubated either with different concentrations of curcumin for 1 h or with 50 μM curcumin for different times. Curcumin inhibited the constitutively active STAT3 in a dose-(FIG. 1A) and time-(FIG. 1B) dependent manner. Curcumin-induced inhibition could be observed as early as 10 min and with a concentration as low as 10 μM.
Whether curcumin-induced inhibition of STAT3 phosphorylation was reversible was further examined. U266 cells were first treated for 60 min with curcumin, and then the cells were washed twice with PBS to remove curcumin. The cells were then cultured in the fresh medium for various durations, and the levels of phosphorylated STAT3 were measured.
In comparison, treatment of cells with 50 μM curcumin for 60 minutes was sufficient to inhibit STAT3 phosphorylation (see FIGS. 1A and 1B).

STAT5 phosphorylation = assay: Constitutive STAT5 phosphorylation in U266 cells (Western blot); settings: 50 μM, conditions of complete STAT3 phosphorylation inhibition
Protocol: as §1
as §2, with “Ill.). […]” for “Ill.).”

STAT1 phosphorylation = assay: IFN-α-inducible STAT1 phosphorylation in U266 cells (Western blot); settings: 50 μM curcumin, IFN-α 10 ng/ml
Protocol: as §1
as §2, with “Ill.). […]” for “Ill.).”

MM.1 cells = assay: IL-6-induced proliferation of MM.1 cells; settings: curcumin 10 μM, 48 h, serum-free
Protocol: FIGS. 7A-B show& that IL-6 induces proliferation of human multiple myeloma cells and curcumin inhibits it. […] Cell proliferation assays were performed as described below. Results are shown as mean (±s.d.) of percent [^3H] thymidine incorporation or percent proliferation by MTT of triplicate cultures compared to the untreated control.
The antiproliferative effects of curcumin against different multiple myeloma cell lines were determined by the MTT dye uptake method as described earlier (28). Briefly, the cells (5000/well) were incubated in triplicate in a 96-well plate in the presence or absence of indicated test samples in a final volume of 0.1 ml for 24 h at 37° C. […] The OD at 570 nm was measured using a 96-well multiscanner autoreader (Dynatech MR 5000), with the extraction buffer serving as blank. Percent cell viability cell viability was calculated using the following formula: Percent cell viability=(OD of the experiment samples/OD of the control)×100.
The antiproliferative effects of curcumin were also monitored by the thymidine incorporation method. […] Six hours before the completion of experiment, cells were pulse treated with 0.5 μCi [^3H]thymidine, and the uptake of [^3H]thymidine was monitored using a Matrix-9600 β-counter (Packard Instruments, Downers Grove, Ill.). […]
Whether curcumin suppresses the proliferative effects of IL-6 was determined.

MM.1S and MM.1R cells = assay: Cell growth of dexamethasone-sensitive and dexamethasone-resistant MM cells (MTT); settings: curcumin 10 μM, 3 days
Protocol: MM.1S and MM.1R cells were cultured with dexamethasone (1 μM) in the absence or presence of curcumin (10 μM) for 3 days and cell viability was checked by the MTT method. Results are shown as mean (±s.d. indicated by error bar) of percent cell growth of triplicate cultures compared to the untreated control.
The antiproliferative effects of curcumin against different multiple myeloma cell lines were determined by the MTT dye uptake method as described earlier (28). Briefly, the cells (5000/well) were incubated in triplicate in a 96-well plate in the presence or absence of indicated test samples in a final volume of 0.1 ml for 24 h at 37° C. Thereafter, 0.025 ml of MTT solution (5 mg/ml in PBS) was added to each well. After a 2-h incubation at 37° C., 0.1 ml of the extraction buffer (20% SDS, 50% dimethylformamide) was added and the extract incubated overnight at 37° C. for solubilization of formazan crystals. The OD at 570 nm was measured using a 96-well multiscanner autoreader (Dynatech MR 5000), with the extraction buffer serving as blank. Percent cell viability cell viability was calculated using the following formula: Percent cell viability=(OD of the experiment samples/OD of the control)×100.
Multiple myeloma treated with dex gradually develops resistance to this drug.

What does the source list for `COc1cc(/C=C/C(=O)CC(=O)/C=C/c2ccc(O)c(OC)c2)ccc1O` [curcumin, diferuloylmethane]?
dose needed to suppress STAT3 phosphorylation (comparison AG490 vs curcumin) (STAT3 phosphorylation): 10 µM; earliest time at which inhibition of constitutive STAT3 phosphorylation could be observed (STAT3 phosphorylation; U266 cells, 50 μM curcumin): 10 min; treatment time sufficient to inhibit STAT3 phosphorylation (STAT3 phosphorylation; U266 cells, 50 μM curcumin): 60 min; inhibition of constitutive STAT3 phosphorylation (STAT3 phosphorylation; U266 cells, 50 μM, 1 h): completely inhibited; lowest concentration at which inhibition of constitutive STAT3 phosphorylation could be observed (STAT3 phosphorylation; U266 cells, 1 h): 10 µM; time to complete reversal of STAT3 phosphorylation inhibition after removal of curcumin (STAT3 phosphorylation; U266 cells, 60 min treatment then washed): ≤ 24 h; overall expression of STAT3 protein (STAT3 phosphorylation; U266 cells, curcumin treatment): did not alter the overall expression of STAT3 protein; exposure needed to suppress STAT3 phosphorylation (comparison AG490 vs curcumin) (STAT3 phosphorylation; curcumin): 30 min; levels of constitutively phosphorylated STAT5 (STAT5 phosphorylation): neither altered the levels of constitutively phosphorylated STAT5; IFN-α-induced STAT1 phosphorylation (STAT1 phosphorylation): suppressed the phosphorylation in a time-dependent manner; IL-6-induced cell proliferation in MM.1 cells (MM.1 cells): inhibited IL-6-induced cell proliferation; proliferation of dex-resistant and dex-sensitive multiple myeloma cells (MM.1S and MM.1R cells): inhibited the proliferation of dex-resistant and dex-sensitive multiple myeloma cells similarly
